Test results taken from the kinase profiling compilation of Christmann-Franck et al. (2016).

Columns and labels:
Experiment in all cases: KINOMEscan competition binding
Details in all cases: compound 10.0 µM
KDR (human) = KDR (human) (UniProt P35968)
MAP3K10 (human) = MAP3K10 (human) (UniProt Q02779)
[1] = target: JAK2 JH1 catalytic (human) (UniProt O60674)
SLK (human) = SLK (human) (UniProt Q9H2G2)
DDR1 (human) = DDR1 (human) (UniProt Q08345)
SYK (human) = SYK (human) (UniProt P43405)
CAMKK2 (human) = CAMKK2 (human) (UniProt Q96RR4)
MAP3K6 (human) = MAP3K6 (human) (UniProt O95382)
HUNK (human) = HUNK (human) (UniProt P57058)
SGK110 (human) = SGK110 (human) (UniProt P0C264)
GRK7 (human) = GRK7 (human) (UniProt Q8WTQ7)
TNK1 (human) = TNK1 (human) (UniProt Q13470)
AURKC (human) = AURKC (human) (UniProt Q9UQB9)
[2] = system: EGFR (human), P00533 [A750P; 747-749 del]
EIF2AK1 (human) = EIF2AK1 (human) (UniProt Q9BQI3)
NEK5 (human) = NEK5 (human) (UniProt Q6P3R8)
MAP2K2 (human) = MAP2K2 (human) (UniProt P36507)
RIOK1 (human) = RIOK1 (human) (UniProt Q9BRS2)
STK32B (human) = STK32B (human) (UniProt Q9NY57)
CDK5 (human) = CDK5 (human) (UniProt Q00535)
PTK6 (human) = PTK6 (human) (UniProt Q13882)
CLK3 (human) = CLK3 (human) (UniProt P49761)
NEK3 (human) = NEK3 (human) (UniProt P51956)
ERBB3 (human) = ERBB3 (human) (UniProt P21860)
NTRK3 (human) = NTRK3 (human) (UniProt Q16288)
CDK17 (human) = CDK17 (human) (UniProt Q00537)
INSR (human) = INSR (human) (UniProt P06213)
MAPK14 (human) = MAPK14 (human) (UniProt Q16539)
BRSK1 (human) = BRSK1 (human) (UniProt Q8TDC3)
PLK4 (human) = PLK4 (human) (UniProt O00444)
RIOK2 (human) = RIOK2 (human) (UniProt Q9BVS4)
CHEK2 (human) = CHEK2 (human) (UniProt O96017)
[3] = target: JAK1 JH2 pseudokinase (human) (UniProt P23458)
CAMK2B (human) = CAMK2B (human) (UniProt Q13554)
EPHB2 (human) = EPHB2 (human) (UniProt P29323)
RPS6KA2 KD2 (human) = RPS6KA2 KD2 (human) (UniProt Q15349)
MYLK2 (human) = MYLK2 (human) (UniProt Q9H1R3)
MAPK15 (human) = MAPK15 (human) (UniProt Q8TD08)
CHEK1 (human) = CHEK1 (human) (UniProt O14757)
MTOR (human) = MTOR (human) (UniProt P42345)
KIT (human) = KIT (human) (UniProt P10721)

Sequence of DDR1 (human) (Q08345 whole entry, looked up): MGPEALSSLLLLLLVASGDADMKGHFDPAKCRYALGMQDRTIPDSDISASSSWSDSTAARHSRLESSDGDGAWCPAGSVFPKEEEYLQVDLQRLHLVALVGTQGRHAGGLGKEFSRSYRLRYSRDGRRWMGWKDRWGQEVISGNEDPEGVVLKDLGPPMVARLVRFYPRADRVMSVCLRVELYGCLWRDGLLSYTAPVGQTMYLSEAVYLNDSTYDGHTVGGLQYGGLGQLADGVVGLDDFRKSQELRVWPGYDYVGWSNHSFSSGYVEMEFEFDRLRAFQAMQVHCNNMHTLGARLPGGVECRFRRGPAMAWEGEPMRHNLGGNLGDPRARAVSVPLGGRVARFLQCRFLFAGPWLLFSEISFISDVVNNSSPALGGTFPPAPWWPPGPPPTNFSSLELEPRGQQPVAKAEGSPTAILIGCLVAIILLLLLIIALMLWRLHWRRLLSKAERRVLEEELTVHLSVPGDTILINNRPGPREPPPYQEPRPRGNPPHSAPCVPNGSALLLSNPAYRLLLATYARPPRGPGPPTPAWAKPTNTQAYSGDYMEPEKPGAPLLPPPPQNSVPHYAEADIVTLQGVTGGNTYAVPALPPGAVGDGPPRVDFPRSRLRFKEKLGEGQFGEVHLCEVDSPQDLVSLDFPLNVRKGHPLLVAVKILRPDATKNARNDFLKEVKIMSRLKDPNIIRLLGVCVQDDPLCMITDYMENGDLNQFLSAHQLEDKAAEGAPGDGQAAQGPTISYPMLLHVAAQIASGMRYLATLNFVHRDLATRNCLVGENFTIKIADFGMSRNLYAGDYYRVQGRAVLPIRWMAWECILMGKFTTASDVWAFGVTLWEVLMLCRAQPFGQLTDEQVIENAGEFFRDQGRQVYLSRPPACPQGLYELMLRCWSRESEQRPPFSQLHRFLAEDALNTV
Sequence of STK32B (human) (Q9NY57 whole entry, looked up): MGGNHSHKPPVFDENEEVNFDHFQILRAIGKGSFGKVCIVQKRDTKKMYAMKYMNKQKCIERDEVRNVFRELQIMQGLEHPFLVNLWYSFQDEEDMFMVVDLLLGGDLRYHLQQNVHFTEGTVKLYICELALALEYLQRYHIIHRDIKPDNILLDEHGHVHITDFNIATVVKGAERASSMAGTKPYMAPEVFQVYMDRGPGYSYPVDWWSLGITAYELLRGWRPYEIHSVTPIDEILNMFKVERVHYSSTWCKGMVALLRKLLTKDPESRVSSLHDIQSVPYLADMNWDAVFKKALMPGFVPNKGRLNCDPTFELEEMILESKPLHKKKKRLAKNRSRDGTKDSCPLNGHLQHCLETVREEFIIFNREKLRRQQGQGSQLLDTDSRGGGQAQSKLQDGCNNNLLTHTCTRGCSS
Sequence of MYLK2 (human) (Q9H1R3 whole entry, looked up): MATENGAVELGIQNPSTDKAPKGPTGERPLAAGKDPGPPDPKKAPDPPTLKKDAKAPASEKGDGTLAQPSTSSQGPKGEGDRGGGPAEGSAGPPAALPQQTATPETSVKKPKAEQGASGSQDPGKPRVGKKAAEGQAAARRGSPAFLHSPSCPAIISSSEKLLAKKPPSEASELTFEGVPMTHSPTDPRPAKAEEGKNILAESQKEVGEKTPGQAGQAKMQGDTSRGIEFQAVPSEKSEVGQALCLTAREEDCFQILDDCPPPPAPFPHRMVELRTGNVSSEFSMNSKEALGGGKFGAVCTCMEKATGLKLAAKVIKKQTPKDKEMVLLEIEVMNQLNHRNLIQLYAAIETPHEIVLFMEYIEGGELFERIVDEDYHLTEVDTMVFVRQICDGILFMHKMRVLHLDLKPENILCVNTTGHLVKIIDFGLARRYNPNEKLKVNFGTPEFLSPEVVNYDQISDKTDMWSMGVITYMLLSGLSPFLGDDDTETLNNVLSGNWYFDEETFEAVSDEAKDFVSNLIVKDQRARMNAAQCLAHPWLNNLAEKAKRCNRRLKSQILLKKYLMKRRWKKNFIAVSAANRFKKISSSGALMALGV
Sequence of TNK1 (human) (Q13470 whole entry, looked up): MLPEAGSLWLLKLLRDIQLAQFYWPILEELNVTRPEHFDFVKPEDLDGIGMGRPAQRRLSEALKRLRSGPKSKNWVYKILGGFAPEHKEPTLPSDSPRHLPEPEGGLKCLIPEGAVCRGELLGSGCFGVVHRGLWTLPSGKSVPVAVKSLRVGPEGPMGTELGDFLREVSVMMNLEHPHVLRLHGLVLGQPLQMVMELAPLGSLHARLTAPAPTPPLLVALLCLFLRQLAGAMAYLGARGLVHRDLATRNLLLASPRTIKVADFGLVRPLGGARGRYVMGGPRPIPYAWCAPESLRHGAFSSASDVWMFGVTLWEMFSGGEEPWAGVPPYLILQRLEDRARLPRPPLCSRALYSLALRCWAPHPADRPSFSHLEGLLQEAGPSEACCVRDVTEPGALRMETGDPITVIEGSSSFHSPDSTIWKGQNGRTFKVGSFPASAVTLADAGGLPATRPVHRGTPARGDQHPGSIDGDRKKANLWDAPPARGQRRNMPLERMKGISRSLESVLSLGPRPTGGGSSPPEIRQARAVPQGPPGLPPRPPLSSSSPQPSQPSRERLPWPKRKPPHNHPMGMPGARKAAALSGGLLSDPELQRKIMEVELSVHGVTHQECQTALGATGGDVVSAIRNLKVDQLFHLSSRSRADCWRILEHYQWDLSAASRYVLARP
Sequence of BRSK1 (human) (Q8TDC3 whole entry, looked up): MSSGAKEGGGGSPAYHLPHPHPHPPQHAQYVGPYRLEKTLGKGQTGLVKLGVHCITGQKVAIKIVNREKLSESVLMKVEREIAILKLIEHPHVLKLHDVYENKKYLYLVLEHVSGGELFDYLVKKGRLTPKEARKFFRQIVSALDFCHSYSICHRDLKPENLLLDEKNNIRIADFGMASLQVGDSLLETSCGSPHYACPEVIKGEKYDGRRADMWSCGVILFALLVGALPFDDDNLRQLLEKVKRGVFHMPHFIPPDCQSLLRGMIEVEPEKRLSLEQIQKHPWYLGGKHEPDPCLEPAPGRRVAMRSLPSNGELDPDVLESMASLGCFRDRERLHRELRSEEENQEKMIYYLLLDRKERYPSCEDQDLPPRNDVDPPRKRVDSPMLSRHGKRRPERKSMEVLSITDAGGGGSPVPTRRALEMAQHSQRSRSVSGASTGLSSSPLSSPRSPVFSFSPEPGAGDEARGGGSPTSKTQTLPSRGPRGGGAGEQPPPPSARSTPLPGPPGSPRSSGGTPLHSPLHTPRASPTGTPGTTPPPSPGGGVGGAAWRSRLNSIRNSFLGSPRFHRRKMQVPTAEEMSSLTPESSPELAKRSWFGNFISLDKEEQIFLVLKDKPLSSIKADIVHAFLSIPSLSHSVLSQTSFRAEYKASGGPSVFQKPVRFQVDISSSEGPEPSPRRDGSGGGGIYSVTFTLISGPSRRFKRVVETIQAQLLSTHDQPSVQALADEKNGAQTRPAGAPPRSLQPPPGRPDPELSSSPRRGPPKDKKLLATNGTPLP
Sequence of NTRK3 (human) (Q16288 whole entry, looked up): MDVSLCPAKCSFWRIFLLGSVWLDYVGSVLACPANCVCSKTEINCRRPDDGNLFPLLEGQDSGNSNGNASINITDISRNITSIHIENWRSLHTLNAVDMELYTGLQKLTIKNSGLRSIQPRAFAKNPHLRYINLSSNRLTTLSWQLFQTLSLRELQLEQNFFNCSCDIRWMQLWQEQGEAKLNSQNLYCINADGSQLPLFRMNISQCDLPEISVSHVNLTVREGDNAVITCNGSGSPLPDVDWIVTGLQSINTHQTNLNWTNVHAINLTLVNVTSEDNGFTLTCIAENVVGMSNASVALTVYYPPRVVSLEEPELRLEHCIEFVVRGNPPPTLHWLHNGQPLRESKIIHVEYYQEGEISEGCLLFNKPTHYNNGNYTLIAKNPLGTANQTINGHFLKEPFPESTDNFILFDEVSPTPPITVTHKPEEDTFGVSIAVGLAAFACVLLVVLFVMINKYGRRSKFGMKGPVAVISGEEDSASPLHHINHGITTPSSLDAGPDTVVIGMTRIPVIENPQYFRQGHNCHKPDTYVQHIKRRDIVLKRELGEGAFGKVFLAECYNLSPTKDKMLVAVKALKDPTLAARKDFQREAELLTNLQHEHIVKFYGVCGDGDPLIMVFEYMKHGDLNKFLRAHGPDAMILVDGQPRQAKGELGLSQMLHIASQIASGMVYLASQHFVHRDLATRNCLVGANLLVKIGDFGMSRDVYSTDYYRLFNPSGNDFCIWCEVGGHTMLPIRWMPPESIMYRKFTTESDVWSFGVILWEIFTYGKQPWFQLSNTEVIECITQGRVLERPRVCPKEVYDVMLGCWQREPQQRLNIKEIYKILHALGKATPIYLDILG
Sequence of CLK3 (human) (P49761 whole entry, looked up): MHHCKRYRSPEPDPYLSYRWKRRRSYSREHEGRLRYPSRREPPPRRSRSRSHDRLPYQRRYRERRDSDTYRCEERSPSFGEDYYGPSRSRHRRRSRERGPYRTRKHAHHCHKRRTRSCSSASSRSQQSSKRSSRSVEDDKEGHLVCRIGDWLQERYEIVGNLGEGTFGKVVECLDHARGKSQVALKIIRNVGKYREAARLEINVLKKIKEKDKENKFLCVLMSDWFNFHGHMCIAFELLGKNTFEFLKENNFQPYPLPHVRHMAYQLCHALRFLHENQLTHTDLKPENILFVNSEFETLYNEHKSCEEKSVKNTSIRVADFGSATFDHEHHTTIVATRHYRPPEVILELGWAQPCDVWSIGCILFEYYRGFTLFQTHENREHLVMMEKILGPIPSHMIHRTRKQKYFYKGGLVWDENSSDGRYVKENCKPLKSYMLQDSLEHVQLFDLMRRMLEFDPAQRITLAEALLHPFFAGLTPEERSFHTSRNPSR
Sequence of CDK5 (human) (Q00535 whole entry, looked up): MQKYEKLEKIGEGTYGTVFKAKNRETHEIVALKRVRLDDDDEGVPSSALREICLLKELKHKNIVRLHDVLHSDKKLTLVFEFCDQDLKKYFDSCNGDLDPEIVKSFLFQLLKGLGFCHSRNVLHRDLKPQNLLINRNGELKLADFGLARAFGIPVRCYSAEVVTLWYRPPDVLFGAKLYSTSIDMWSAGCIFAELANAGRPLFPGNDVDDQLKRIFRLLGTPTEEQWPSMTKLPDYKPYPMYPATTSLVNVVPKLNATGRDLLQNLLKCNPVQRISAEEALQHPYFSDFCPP

With CCC(=O)N1CCN(c2ccc(-n3c(=O)ccc4cnc5ccc(-c6cnc7ccccc7c6)cc5c43)cc2C(F)(F)F)CC1 the kinase still bound, per cent of control (KDR (human)) was 65%, the kinase still bound, per cent of control (MAP3K10 (human)) was 99% and the kinase still bound, per cent of control [1] was 65%. The kinase still bound, per cent of control (SLK (human)) was 94%, the kinase still bound, per cent of control (DDR1 (human)) was 100% and the kinase still bound, per cent of control (SYK (human)) was 78%. It also gave a kinase still bound, per cent of control (CAMKK2 (human)) of 85%, a kinase still bound, per cent of control (MAP3K6 (human)) of 100% and a kinase still bound, per cent of control (HUNK (human)) of 91%. For the same molecule, the kinase still bound, per cent of control (SGK110 (human)) was 94%, the kinase still bound, per cent of control (GRK7 (human)) was 100% and the kinase still bound, per cent of control (TNK1 (human)) was 6.8%. The kinase still bound, per cent of control (AURKC (human)) was 91%, the kinase still bound, per cent of control [2] was 100% and the kinase still bound, per cent of control (EIF2AK1 (human)) was 57%. The kinase still bound, per cent of control (NEK5 (human)) was 5.8%, the kinase still bound, per cent of control (MAP2K2 (human)) was 100% and the kinase still bound, per cent of control (RIOK1 (human)) was 81%. It also gave a kinase still bound, per cent of control (STK32B (human)) of 87%, a per cent of control (CDK5 (human)) of 100% and a kinase still bound, per cent of control (PTK6 (human)) of 51%. For the same molecule, the kinase still bound, per cent of control (CLK3 (human)) was 43%, the kinase still bound, per cent of control (NEK3 (human)) was 100% and the kinase still bound, per cent of control (ERBB3 (human)) was 44%. For the same molecule, the kinase still bound, per cent of control (NTRK3 (human)) was 100%, the per cent of control (CDK17 (human)) was 97% and the kinase still bound, per cent of control (INSR (human)) was 7.6%. The kinase still bound, per cent of control (MAPK14 (human)) was 90%, the kinase still bound, per cent of control (BRSK1 (human)) was 78% and the kinase still bound, per cent of control (PLK4 (human)) was 100%. The kinase still bound, per cent of control (RIOK2 (human)) was 24%, the kinase still bound, per cent of control (CHEK2 (human)) was 100% and the kinase still bound, per cent of control [3] was 76%. It also gave a kinase still bound, per cent of control (CAMK2B (human)) of 100%, a kinase still bound, per cent of control (EPHB2 (human)) of 100% and a kinase still bound, per cent of control (RPS6KA2 KD2 (human)) of 85%. It also gave a kinase still bound, per cent of control (MYLK2 (human)) of 40% and a kinase still bound, per cent of control (MAPK15 (human)) of 79%.

Molecule CC(C)n1nc(-c2cc3cc(O)ccc3[nH]2)c2c(N)ncnc21 has a kinase still bound, per cent of control (MAP3K10 (human)) of 53%, a kinase still bound, per cent of control [1] of 0.95% and a kinase still bound, per cent of control (SLK (human)) of 0.2%. It also gave a kinase still bound, per cent of control (DDR1 (human)) of 6.4%, a kinase still bound, per cent of control (SYK (human)) of 100% and a kinase still bound, per cent of control (CAMKK2 (human)) of 30%. It also gave a kinase still bound, per cent of control (MAP3K6 (human)) of 85%, a kinase still bound, per cent of control (HUNK (human)) of 99% and a kinase still bound, per cent of control (SGK110 (human)) of 100%. The kinase still bound, per cent of control (GRK7 (human)) was 2.9%, the kinase still bound, per cent of control (TNK1 (human)) was 34% and the kinase still bound, per cent of control (AURKC (human)) was 68%. It also gave a kinase still bound, per cent of control (EIF2AK1 (human)) of 93%, a kinase still bound, per cent of control (NEK5 (human)) of 86% and a kinase still bound, per cent of control (MAP2K2 (human)) of 0.4%. It also gave a kinase still bound, per cent of control (RIOK1 (human)) of 100%, a kinase still bound, per cent of control (CHEK1 (human)) of 66% and a kinase still bound, per cent of control (STK32B (human)) of 8.2%. The per cent of control (CDK5 (human)) was 100%, the kinase still bound, per cent of control (PTK6 (human)) was 32% and the kinase still bound, per cent of control (CLK3 (human)) was 66%. It also gave a kinase still bound, per cent of control (NEK3 (human)) of 55%, a kinase still bound, per cent of control (ERBB3 (human)) of 0% and a kinase still bound, per cent of control (NTRK3 (human)) of 49%. For the same molecule, the per cent of control (CDK17 (human)) was 100%, the kinase still bound, per cent of control (INSR (human)) was 100% and the kinase still bound, per cent of control (MAPK14 (human)) was 95%. For the same molecule, the kinase still bound, per cent of control (BRSK1 (human)) was 1.6%, the kinase still bound, per cent of control (PLK4 (human)) was 2.6% and the kinase still bound, per cent of control (RIOK2 (human)) was 38%. For the same molecule, the kinase still bound, per cent of control (CHEK2 (human)) was 19%, the kinase still bound, per cent of control [3] was 0.2% and the kinase still bound, per cent of control (MTOR (human)) was 0%. For the same molecule, the kinase still bound, per cent of control (KIT (human)) was 0.8%, the kinase still bound, per cent of control (CAMK2B (human)) was 63% and the kinase still bound, per cent of control (EPHB2 (human)) was 32%. For the same molecule, the kinase still bound, per cent of control (RPS6KA2 KD2 (human)) was 62%, the kinase still bound, per cent of control (MYLK2 (human)) was 43% and the kinase still bound, per cent of control (MAPK15 (human)) was 54%.

COc1ccc(-c2ccc3c(N4CCOCC4)nc(N4C[C@@H](C)O[C@@H](C)C4)nc3n2)cc1CO showed a kinase still bound, per cent of control (KDR (human)) of 98%, a kinase still bound, per cent of control (MAP3K10 (human)) of 98% and a kinase still bound, per cent of control [1] of 71%. It also gave a kinase still bound, per cent of control (SLK (human)) of 98%, a kinase still bound, per cent of control (DDR1 (human)) of 85% and a kinase still bound, per cent of control (SYK (human)) of 100%. It also gave a kinase still bound, per cent of control (CAMKK2 (human)) of 64%, a kinase still bound, per cent of control (MAP3K6 (human)) of 91% and a kinase still bound, per cent of control (HUNK (human)) of 90%. It also gave a kinase still bound, per cent of control (SGK110 (human)) of 98%, a kinase still bound, per cent of control (GRK7 (human)) of 100% and a kinase still bound, per cent of control (TNK1 (human)) of 100%. The kinase still bound, per cent of control (AURKC (human)) was 100%, the kinase still bound, per cent of control [2] was 100% and the kinase still bound, per cent of control (EIF2AK1 (human)) was 88%. The kinase still bound, per cent of control (NEK5 (human)) was 100%, the kinase still bound, per cent of control (MAP2K2 (human)) was 92% and the kinase still bound, per cent of control (RIOK1 (human)) was 51%. For the same molecule, the kinase still bound, per cent of control (CHEK1 (human)) was 99%, the kinase still bound, per cent of control (STK32B (human)) was 100% and the per cent of control (CDK5 (human)) was 100%. The kinase still bound, per cent of control (PTK6 (human)) was 100%, the kinase still bound, per cent of control (CLK3 (human)) was 90% and the kinase still bound, per cent of control (NEK3 (human)) was 61%. It also gave a kinase still bound, per cent of control (ERBB3 (human)) of 85%, a kinase still bound, per cent of control (NTRK3 (human)) of 77% and a per cent of control (CDK17 (human)) of 100%. The kinase still bound, per cent of control (INSR (human)) was 97%, the kinase still bound, per cent of control (MAPK14 (human)) was 99% and the kinase still bound, per cent of control (BRSK1 (human)) was 100%. It also gave a kinase still bound, per cent of control (PLK4 (human)) of 100%, a kinase still bound, per cent of control (RIOK2 (human)) of 60% and a kinase still bound, per cent of control (CHEK2 (human)) of 100%. It also gave a kinase still bound, per cent of control [3] of 100%, a kinase still bound, per cent of control (MTOR (human)) of 0% and a kinase still bound, per cent of control (KIT (human)) of 87%. The kinase still bound, per cent of control (CAMK2B (human)) was 96%, the kinase still bound, per cent of control (EPHB2 (human)) was 100% and the kinase still bound, per cent of control (RPS6KA2 KD2 (human)) was 94%. It also gave a kinase still bound, per cent of control (MYLK2 (human)) of 78% and a kinase still bound, per cent of control (MAPK15 (human)) of 96%.
